Laboratory results taken from the kinase profiling compilation of Christmann-Franck et al. (2016).

Experiments:
Assay in all cases: radiometric filter-binding kinase assay, Kinase HotSpot
ADRBK2 (human) = ADRBK2 (human) (UniProt P35626); details: compound 0.5 µM; ATP 10 µM
AKT3 (human) = AKT3 (human) (UniProt Q9Y243); details: compound 0.5 µM; ATP 10 µM
ALK (human) = ALK (human) (UniProt Q9UM73); details: compound 0.5 µM; ATP 10 µM
CAMK1 (human) = CAMK1 (human) (UniProt Q14012); details: compound 0.5 µM; ATP 10 µM
CDC42BPA (human) = CDC42BPA (human) (UniProt Q5VT25); details: compound 0.5 µM; ATP 10 µM
CDK5 CDK5R1 p25 (human) = CDK5 CDK5R1 p25 (human) (UniProt Q00535+Q15078); details: compound 0.5 µM
CDK9 CCNT1 (human) = CDK9 CCNT1 (human) (UniProt P50750+O60563); details: compound 0.5 µM
CHUK (human) = CHUK (human) (UniProt O15111); details: compound 0.5 µM; ATP 10 µM
CLK3 (human) = CLK3 (human) (UniProt P49761); details: compound 0.5 µM; ATP 10 µM
CSNK1G1 (human) = CSNK1G1 (human) (UniProt Q9HCP0); details: compound 0.5 µM; ATP 10 µM
EPHA2 (human) = EPHA2 (human) (UniProt P29317); details: compound 0.5 µM; ATP 10 µM
EPHA5 (human) = EPHA5 (human) (UniProt P54756); details: compound 0.5 µM; ATP 10 µM
FER (human) = FER (human) (UniProt P16591); details: compound 0.5 µM; ATP 10 µM
FGR (human) = FGR (human) (UniProt P09769); details: compound 0.5 µM; ATP 10 µM
GRK6 (human) = GRK6 (human) (UniProt P43250); details: compound 0.5 µM; ATP 10 µM
IKBKB (human) = IKBKB (human) (UniProt O14920); details: compound 0.5 µM; ATP 10 µM
INSRR (human) = INSRR (human) (UniProt P14616); details: compound 0.5 µM; ATP 10 µM
MAP3K3 (human) = MAP3K3 (human) (UniProt Q99759); details: compound 0.5 µM; ATP 10 µM
MAPK13 (human) = MAPK13 (human) (UniProt O15264); details: compound 0.5 µM; ATP 10 µM
Chain of MAPK13 (human) (O15264 whole entry, looked up): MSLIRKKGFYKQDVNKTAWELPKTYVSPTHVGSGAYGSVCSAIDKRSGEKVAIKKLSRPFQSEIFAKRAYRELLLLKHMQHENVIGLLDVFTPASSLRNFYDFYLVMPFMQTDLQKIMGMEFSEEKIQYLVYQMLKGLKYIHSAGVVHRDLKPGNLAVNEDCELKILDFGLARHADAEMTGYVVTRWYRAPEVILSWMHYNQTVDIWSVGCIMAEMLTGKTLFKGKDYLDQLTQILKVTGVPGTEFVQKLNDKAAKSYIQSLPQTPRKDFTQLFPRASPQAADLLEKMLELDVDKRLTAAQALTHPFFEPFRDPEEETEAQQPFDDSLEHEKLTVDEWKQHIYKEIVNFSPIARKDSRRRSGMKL

MAPK8 (human) = MAPK8 (human) (UniProt P45983); details: compound 0.5 µM; ATP 10 µM
Chain of MAPK8 (human) (P45983 whole entry, looked up): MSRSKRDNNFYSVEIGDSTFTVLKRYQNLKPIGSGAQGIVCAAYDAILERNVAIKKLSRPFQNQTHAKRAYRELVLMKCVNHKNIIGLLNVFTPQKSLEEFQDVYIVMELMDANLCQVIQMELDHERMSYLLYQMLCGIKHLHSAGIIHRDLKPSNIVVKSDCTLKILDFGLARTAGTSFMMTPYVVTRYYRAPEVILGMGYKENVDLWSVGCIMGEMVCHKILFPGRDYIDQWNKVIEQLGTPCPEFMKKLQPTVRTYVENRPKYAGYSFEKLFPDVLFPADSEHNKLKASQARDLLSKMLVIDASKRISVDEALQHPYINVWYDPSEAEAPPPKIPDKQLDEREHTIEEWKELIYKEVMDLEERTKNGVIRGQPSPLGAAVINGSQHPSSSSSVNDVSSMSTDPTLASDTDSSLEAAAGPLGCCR

MAPK9 (human) = MAPK9 (human) (UniProt P45984); details: compound 0.5 µM; ATP 10 µM
MAPKAPK5 (human) = MAPKAPK5 (human) (UniProt Q8IW41); details: compound 0.5 µM; ATP 10 µM
MET (human) = MET (human) (UniProt P08581); details: compound 0.5 µM; ATP 10 µM
MKNK2 (human) = MKNK2 (human) (UniProt Q9HBH9); details: compound 0.5 µM; ATP 10 µM
PAK1 (human) = PAK1 (human) (UniProt Q13153); details: compound 0.5 µM; ATP 10 µM
Chain of PAK1 (human) (Q13153 whole entry, looked up): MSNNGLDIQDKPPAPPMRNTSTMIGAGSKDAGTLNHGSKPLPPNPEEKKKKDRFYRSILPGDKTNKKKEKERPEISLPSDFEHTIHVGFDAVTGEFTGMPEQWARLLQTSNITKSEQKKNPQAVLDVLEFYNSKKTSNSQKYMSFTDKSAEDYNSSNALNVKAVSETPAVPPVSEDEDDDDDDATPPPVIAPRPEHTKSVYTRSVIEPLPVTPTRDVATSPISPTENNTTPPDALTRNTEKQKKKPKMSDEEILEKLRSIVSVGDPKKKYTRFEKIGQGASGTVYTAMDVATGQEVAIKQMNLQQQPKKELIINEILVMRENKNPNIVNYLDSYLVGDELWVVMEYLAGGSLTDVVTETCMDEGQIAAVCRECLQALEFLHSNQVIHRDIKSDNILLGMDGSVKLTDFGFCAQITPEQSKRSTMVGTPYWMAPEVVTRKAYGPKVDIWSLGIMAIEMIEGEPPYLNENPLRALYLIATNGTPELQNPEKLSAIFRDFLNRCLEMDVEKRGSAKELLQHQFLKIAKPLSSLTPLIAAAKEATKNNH

PAK2 (human) = PAK2 (human) (UniProt Q13177); details: compound 0.5 µM; ATP 10 µM
PAK3 (human) = PAK3 (human) (UniProt O75914); details: compound 0.5 µM; ATP 10 µM
Chain of PAK3 (human) (O75914 whole entry, looked up): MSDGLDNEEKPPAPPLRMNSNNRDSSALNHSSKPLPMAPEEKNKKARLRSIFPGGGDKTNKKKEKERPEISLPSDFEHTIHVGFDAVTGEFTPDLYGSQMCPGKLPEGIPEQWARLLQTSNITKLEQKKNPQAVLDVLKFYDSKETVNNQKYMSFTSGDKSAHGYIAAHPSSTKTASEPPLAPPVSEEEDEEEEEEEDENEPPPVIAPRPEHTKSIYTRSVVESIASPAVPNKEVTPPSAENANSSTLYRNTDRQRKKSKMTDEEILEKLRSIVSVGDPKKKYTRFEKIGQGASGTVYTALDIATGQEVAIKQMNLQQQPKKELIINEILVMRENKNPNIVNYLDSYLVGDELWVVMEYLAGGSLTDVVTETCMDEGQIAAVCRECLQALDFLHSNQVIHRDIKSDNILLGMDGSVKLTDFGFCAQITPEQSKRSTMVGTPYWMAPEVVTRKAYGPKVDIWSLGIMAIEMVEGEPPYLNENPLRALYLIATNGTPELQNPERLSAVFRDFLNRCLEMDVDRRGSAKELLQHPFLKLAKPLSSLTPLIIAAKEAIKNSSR

PAK4 (human) = PAK4 (human) (UniProt O96013); details: compound 0.5 µM; ATP 10 µM
PDGFRB (human) = PDGFRB (human) (UniProt P09619); details: compound 0.5 µM; ATP 10 µM
PRKCB2 (human) = PRKCB2 (human) (UniProt P05771); details: compound 0.5 µM; ATP 10 µM
PRKCI (human) = PRKCI (human) (UniProt P41743); details: compound 0.5 µM; ATP 10 µM
Chain of PRKCI (human) (P41743 whole entry, looked up): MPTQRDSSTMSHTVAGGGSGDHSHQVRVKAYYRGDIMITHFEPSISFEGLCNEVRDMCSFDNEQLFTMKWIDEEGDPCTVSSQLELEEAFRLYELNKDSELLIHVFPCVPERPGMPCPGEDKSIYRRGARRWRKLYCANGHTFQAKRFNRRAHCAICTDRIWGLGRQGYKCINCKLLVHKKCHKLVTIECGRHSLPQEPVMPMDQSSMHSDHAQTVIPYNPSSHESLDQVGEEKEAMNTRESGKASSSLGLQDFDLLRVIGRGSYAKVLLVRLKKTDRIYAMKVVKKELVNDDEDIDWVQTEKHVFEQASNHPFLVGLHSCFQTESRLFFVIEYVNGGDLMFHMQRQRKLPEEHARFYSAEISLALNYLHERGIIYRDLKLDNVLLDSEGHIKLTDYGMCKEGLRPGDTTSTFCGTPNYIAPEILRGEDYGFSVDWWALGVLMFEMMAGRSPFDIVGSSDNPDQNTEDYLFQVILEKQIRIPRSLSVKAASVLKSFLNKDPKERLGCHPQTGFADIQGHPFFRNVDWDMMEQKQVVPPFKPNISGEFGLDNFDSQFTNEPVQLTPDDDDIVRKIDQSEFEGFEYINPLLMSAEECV

PRKG2 (human) = PRKG2 (human) (UniProt Q13237); details: compound 0.5 µM; ATP 10 µM
Chain of PRKG2 (human) (Q13237 whole entry, looked up): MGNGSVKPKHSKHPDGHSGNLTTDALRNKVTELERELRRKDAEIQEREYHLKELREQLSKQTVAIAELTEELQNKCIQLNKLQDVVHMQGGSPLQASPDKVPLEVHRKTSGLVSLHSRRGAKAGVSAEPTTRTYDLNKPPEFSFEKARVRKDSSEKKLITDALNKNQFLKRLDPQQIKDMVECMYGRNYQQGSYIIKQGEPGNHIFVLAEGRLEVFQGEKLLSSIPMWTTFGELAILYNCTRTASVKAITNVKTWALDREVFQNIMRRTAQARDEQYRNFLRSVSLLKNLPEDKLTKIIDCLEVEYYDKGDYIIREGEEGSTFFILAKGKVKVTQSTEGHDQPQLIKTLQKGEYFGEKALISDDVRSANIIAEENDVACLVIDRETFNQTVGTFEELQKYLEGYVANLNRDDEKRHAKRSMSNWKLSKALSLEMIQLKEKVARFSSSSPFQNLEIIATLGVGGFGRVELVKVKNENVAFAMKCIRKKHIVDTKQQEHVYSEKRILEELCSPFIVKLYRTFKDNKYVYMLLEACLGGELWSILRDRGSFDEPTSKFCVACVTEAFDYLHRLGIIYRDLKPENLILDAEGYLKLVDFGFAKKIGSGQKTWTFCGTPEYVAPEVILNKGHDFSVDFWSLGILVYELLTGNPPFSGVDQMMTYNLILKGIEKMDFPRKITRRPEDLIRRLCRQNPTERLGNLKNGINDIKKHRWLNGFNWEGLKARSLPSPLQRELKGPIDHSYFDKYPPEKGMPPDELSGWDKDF

PRKX (human) = PRKX (human) (UniProt P51817); details: compound 0.5 µM; ATP 10 µM
ROCK1 (human) = ROCK1 (human) (UniProt Q13464); details: compound 0.5 µM; ATP 10 µM
ROCK2 (human) = ROCK2 (human) (UniProt O75116); details: compound 0.5 µM; ATP 10 µM
RPS6KA4 KD2 (human) = RPS6KA4 KD2 (human) (UniProt O75676); details: compound 0.5 µM; ATP 10 µM
Chain of RPS6KA4 KD2 (human) (O75676 whole entry, looked up): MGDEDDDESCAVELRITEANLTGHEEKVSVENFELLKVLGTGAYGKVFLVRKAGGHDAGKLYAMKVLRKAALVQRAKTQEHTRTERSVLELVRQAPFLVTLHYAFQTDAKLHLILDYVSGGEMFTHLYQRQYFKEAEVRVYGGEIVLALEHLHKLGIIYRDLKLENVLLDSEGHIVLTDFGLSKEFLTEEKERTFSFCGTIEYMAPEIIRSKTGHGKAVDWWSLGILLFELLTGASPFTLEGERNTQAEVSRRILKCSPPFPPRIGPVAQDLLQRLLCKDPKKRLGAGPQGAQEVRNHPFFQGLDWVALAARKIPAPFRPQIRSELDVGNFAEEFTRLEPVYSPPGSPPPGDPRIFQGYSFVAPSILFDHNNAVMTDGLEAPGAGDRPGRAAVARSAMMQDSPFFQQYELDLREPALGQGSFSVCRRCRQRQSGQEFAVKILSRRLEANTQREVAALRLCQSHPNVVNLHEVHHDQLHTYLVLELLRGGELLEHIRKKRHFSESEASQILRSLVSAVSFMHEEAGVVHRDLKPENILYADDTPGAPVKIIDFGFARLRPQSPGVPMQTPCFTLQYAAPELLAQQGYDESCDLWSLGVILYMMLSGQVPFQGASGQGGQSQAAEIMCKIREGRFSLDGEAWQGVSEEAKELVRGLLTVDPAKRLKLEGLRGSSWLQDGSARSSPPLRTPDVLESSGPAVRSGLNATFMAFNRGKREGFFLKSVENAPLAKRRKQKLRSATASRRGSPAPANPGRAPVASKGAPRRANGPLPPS

RPS6KB2 (human) = RPS6KB2 (human) (UniProt Q9UBS0); details: compound 0.5 µM; ATP 10 µM
Chain of RPS6KB2 (human) (Q9UBS0 whole entry, looked up): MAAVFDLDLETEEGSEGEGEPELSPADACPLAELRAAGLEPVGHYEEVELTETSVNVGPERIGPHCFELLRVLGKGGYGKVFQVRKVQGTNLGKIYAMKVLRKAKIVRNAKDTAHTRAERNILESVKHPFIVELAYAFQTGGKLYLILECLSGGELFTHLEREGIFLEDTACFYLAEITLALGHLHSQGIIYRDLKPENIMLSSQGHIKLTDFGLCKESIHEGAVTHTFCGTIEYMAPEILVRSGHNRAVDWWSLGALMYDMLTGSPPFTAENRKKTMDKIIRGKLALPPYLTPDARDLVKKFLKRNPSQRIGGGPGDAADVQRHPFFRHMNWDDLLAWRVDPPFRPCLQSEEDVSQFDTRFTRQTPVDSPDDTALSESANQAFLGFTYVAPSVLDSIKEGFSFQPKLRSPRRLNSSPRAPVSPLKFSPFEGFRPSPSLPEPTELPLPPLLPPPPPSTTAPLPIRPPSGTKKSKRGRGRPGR

SRPK1 (human) = SRPK1 (human) (UniProt Q96SB4); details: compound 0.5 µM; ATP 10 µM
SYK (human) = SYK (human) (UniProt P43405); details: compound 0.5 µM; ATP 10 µM
TSSK2 (human) = TSSK2 (human) (UniProt Q96PF2); details: compound 0.5 µM; ATP 10 µM
VRK1 (human) = VRK1 (human) (UniProt Q99986); details: compound 0.5 µM; ATP 10 µM
WNK3 (human) = WNK3 (human) (UniProt Q9BYP7); details: compound 0.5 µM; ATP 10 µM

Chain of AKT3 (human) (Q9Y243 whole entry, looked up): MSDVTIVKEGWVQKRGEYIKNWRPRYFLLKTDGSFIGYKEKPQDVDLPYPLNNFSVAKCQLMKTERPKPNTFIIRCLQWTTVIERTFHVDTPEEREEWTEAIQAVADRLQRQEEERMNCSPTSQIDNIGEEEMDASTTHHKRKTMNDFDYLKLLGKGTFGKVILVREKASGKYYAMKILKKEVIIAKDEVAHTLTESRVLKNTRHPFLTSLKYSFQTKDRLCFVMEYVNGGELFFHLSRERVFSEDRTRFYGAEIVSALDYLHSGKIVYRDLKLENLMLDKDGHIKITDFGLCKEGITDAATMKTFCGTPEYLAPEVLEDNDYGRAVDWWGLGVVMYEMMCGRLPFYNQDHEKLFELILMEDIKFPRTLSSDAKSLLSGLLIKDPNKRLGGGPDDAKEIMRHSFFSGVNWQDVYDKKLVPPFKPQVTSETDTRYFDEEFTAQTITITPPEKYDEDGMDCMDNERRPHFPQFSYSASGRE

SMILES: O=c1[nH]c2ccccc2n1C1CCN(Cc2ccc(-c3nc4cc5[nH]cnc5cc4nc3-c3ccccc3)cc2)CC1
- residual activity (ADRBK2 (human)): 87.3%
- residual activity (AKT3 (human)): 103%
- residual activity (ALK (human)): 106%
- residual activity (CAMK1 (human)): 95.1%
- residual activity (CDC42BPA (human)): 105%
- residual activity (CDK5 CDK5R1 p25 (human)): 96.9%
- residual activity (CDK9 CCNT1 (human)): 93.2%
- residual activity (CHUK (human)): 90.1%
- residual activity (CLK3 (human)): 111%
- residual activity (CSNK1G1 (human)): 99.3%
- residual activity (EPHA2 (human)): 103%
- residual activity (EPHA5 (human)): 102%
- residual activity (FER (human)): 99.6%
- residual activity (FGR (human)): 95.7%
- residual activity (GRK6 (human)): 88%
- residual activity (IKBKB (human)): 101%
- residual activity (INSRR (human)): 101%
- residual activity (MAP3K3 (human)): 101%
- residual activity (MAPK13 (human)): 102%
- residual activity (MAPK8 (human)): 89.6%
- residual activity (MAPK9 (human)): 91.9%
- residual activity (MAPKAPK5 (human)): 97.4%
- residual activity (MET (human)): 102%
- residual activity (MKNK2 (human)): 98.7%
- residual activity (PAK1 (human)): 90.6%
- residual activity (PAK2 (human)): 99.2%
- residual activity (PAK3 (human)): 104%
- residual activity (PAK4 (human)): 102%
- residual activity (PDGFRB (human)): 102%
- residual activity (PRKCB2 (human)): 105%
- residual activity (PRKCI (human)): 97%
- residual activity (PRKG2 (human)): 96.8%
- residual activity (PRKX (human)): 101%
- residual activity (ROCK1 (human)): 101%
- residual activity (ROCK2 (human)): 109%
- residual activity (RPS6KA4 KD2 (human)): 98.8%
- residual activity (RPS6KB2 (human)): 102%
- residual activity (SRPK1 (human)): 106%
- residual activity (SYK (human)): 97.9%
- residual activity (TSSK2 (human)): 96.2%
- residual activity (VRK1 (human)): 98.3%
- residual activity (WNK3 (human)): 106%

SMILES: O=c1c(-c2ccc(F)cc2)c(-c2ccncc2)[nH]n1-c1ccc(Cl)cc1
- residual activity (ADRBK2 (human)): 95%
- residual activity (AKT3 (human)): 94.3%
- residual activity (ALK (human)): 83.8%
- residual activity (CAMK1 (human)): 94.4%
- residual activity (CDC42BPA (human)): 98%
- residual activity (CDK5 CDK5R1 p25 (human); ATP 10 µM): 76.3%
- residual activity (CDK9 CCNT1 (human); ATP 10 µM): 101%
- residual activity (CHUK (human)): 101%
- residual activity (CLK3 (human)): 88.7%
- residual activity (CSNK1G1 (human)): 83.4%
- residual activity (EPHA2 (human)): 101%
- residual activity (EPHA5 (human)): 106%
- residual activity (FER (human)): 94.3%
- residual activity (FGR (human)): 87.4%
- residual activity (GRK6 (human)): 90.1%
- residual activity (IKBKB (human)): 102%
- residual activity (INSRR (human)): 95.4%
- residual activity (MAP3K3 (human)): 96.2%
- residual activity (MAPK13 (human)): 102%
- residual activity (MAPK8 (human)): 90.2%
- residual activity (MAPK9 (human)): 6.07%
- residual activity (MAPKAPK5 (human)): 99.7%
- residual activity (MET (human)): 101%
- residual activity (MKNK2 (human)): 97.2%
- residual activity (PAK1 (human)): 92.4%
- residual activity (PAK2 (human)): 102%
- residual activity (PAK3 (human)): 98.3%
- residual activity (PAK4 (human)): 82%
- residual activity (PDGFRB (human)): 101%
- residual activity (PRKCB2 (human)): 92.4%
- residual activity (PRKCI (human)): 96.2%
- residual activity (PRKG2 (human)): 110%
- residual activity (PRKX (human)): 97%
- residual activity (ROCK1 (human)): 109%
- residual activity (ROCK2 (human)): 89.5%
- residual activity (RPS6KA4 KD2 (human)): 103%
- residual activity (RPS6KB2 (human)): 95.5%
- residual activity (SRPK1 (human)): 97.9%
- residual activity (SYK (human)): 98.9%
- residual activity (TSSK2 (human)): 80%
- residual activity (VRK1 (human)): 92.9%
- residual activity (WNK3 (human)): 93.6%
